Reference: ChEMBL document CHEMBL1759905, “Nonsteroidal 2,3-dihydroquinoline glucocorticoid receptor agonists with reduced PEPCK activation” (Bioorg Med Chem Lett, 2011)

Tests used:
Glucocorticoid receptor [1] = biological target: T1, Glucocorticoid receptor (Homo sapiens, UniProt P04150); experiment: Transrepression activity at glucocorticoid receptor in human NHDF cells assessed as inhibition of IL-1beta-stimulated AP1 dependent IL-6 repression by ELISA; assay type: cell-based
T1 sequence (P04150 whole entry): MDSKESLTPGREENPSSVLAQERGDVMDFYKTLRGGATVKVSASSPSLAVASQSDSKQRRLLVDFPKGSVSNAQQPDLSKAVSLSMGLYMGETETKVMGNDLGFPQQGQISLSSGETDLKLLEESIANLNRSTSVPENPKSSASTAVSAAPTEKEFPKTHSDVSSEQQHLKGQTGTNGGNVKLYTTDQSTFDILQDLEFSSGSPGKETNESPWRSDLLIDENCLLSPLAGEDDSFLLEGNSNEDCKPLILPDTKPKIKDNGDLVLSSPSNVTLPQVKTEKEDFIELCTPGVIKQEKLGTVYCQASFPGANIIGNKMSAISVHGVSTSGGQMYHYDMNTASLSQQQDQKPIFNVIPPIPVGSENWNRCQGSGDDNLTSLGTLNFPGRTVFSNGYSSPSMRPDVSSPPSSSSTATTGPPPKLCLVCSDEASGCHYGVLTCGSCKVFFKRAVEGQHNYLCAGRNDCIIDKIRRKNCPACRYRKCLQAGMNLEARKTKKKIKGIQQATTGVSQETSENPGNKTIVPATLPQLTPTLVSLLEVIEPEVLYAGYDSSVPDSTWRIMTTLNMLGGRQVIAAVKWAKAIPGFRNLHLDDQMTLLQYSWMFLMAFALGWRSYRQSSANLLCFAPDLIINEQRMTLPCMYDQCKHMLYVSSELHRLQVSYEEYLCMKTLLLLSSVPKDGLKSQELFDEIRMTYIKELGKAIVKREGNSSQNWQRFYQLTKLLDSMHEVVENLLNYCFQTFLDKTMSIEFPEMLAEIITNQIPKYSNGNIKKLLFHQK

[2] = biological target: T2, Glucocorticoid receptor (Homo sapiens) (UniProt P04150); experiment: Agonist activity at glucocorticoid receptor in human HepG2 cells co-transfected with PEPCK assessed as GRE activation by luciferase reporter gene assay relative to Dexamethasone; assay type: functional, cell-based
T2 sequence (whole entry): T1 sequence (P04150 whole entry)

Progesterone receptor = biological target: T3, Progesterone receptor (Homo sapiens, UniProt P06401); experiment: Binding affinity to progesterone receptor
T3 sequence (P06401 whole entry): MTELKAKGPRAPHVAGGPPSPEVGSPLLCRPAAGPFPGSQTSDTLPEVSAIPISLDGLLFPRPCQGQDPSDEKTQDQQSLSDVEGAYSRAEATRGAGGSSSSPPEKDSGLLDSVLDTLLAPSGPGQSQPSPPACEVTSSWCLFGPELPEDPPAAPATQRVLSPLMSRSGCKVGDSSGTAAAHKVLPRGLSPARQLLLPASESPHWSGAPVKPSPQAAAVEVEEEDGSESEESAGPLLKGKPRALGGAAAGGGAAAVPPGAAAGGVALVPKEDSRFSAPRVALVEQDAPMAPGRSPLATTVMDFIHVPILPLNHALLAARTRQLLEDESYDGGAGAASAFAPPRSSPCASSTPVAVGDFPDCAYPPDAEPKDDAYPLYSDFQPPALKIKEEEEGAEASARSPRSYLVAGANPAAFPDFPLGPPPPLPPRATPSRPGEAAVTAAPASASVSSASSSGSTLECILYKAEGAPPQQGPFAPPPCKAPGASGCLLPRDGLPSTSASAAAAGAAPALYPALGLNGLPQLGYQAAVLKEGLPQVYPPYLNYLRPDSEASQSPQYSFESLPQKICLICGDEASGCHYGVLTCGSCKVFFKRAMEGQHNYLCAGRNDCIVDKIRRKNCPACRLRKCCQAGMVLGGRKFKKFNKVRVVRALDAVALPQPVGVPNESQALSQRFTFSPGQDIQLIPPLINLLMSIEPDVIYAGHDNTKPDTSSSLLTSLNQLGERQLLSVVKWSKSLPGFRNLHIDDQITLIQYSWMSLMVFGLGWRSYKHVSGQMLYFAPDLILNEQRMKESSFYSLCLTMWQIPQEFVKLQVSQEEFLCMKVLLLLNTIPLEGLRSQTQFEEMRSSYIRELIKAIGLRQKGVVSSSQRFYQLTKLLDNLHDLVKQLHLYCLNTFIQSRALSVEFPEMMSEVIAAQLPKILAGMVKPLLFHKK

Androgen receptor = biological target: T4, Androgen receptor (Homo sapiens, UniProt P10275); experiment: Binding affinity to androgen receptor
T4 sequence (P10275 whole entry): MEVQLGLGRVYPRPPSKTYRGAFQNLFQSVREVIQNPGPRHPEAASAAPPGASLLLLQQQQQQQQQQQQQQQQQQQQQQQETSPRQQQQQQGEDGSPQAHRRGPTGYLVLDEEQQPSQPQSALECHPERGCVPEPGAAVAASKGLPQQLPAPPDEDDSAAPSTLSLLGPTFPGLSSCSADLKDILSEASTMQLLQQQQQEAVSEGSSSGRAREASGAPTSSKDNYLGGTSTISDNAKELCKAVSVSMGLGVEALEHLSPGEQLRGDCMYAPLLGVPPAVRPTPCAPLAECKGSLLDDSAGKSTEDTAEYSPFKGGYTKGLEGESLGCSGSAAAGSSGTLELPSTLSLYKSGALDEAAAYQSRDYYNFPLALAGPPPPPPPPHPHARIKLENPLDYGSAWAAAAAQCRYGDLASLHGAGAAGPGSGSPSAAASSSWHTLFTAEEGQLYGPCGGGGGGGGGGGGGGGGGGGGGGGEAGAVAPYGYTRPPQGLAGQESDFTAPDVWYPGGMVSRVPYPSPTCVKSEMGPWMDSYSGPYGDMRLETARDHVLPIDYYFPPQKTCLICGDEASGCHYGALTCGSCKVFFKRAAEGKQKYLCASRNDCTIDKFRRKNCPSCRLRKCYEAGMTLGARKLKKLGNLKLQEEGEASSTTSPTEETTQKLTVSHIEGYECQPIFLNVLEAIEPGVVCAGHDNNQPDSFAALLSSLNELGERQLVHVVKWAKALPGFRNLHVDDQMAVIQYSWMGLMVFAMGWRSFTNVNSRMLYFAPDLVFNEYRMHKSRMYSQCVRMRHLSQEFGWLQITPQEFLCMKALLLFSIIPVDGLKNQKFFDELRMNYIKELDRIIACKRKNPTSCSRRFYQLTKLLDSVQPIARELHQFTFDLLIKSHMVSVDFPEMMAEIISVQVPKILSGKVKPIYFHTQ

[3] = biological target: T2, Glucocorticoid receptor (Homo sapiens); experiment: Transrepression activity at glucocorticoid receptor in human NHDF cells assessed as inhibition of IL-1beta-stimulated AP1 dependent IL-6 repression by ELISA relative to Dexamethasone; assay type: cell-based; design: concentration or dose not given beside the values
[4] = biological target: T2, Glucocorticoid receptor (Homo sapiens); experiment: Transrepression activity at glucocorticoid receptor in human HepG2 cells assessed as inhibition of TNFalpha/IL1beta-stimulated NFkappaB-dependent E-selectin repression by luciferase reporter gene assay relative to Dexamethasone; assay type: cell-based; design: scale not given: the % may be the effect or the level left
Glucocorticoid receptor [5] = biological target: T1, Glucocorticoid receptor; experiment: Agonist activity at glucocorticoid receptor in human HepG2 cells co-transfected with GRE assessed as GRE activation by luciferase reporter gene assay; assay type: functional, cell-based
Glucocorticoid receptor [6] = biological target: T1, Glucocorticoid receptor; experiment: Agonist activity at glucocorticoid receptor in human HepG2 cells co-transfected with PEPCK assessed as GRE activation by luciferase reporter gene assay; assay type: functional, cell-based

SMILES | IC50 (Glucocorticoid receptor [1]) [nM] | Activity [2] [%] | Ki (Progesterone receptor) [nM] | Ki (Androgen receptor) [nM] | Activity [3] [%] | Activity [4] [%] | EC50 (Glucocorticoid receptor [5]) [nM] | EC50 (Glucocorticoid receptor [6]) [nM]
CC1(C)C/C(=N\OC(C)(C)C)c2c(cc(F)c(-c3cccc4c(Cl)c[nH]c34)c2F)N1 | 19 | 27 | 570 | 90 | 83 | 94 | 3.4 | 67
CO/N=C1/c2c(cc(F)c(-c3cccc4c(C)c[nH]c34)c2F)NC(C)(C)C1O (racemic) | 17 | 79 | 3800 | 2800 | 98 | 96 | 3.9 | 560

The remaining lines, values ahead:

IC50 (Glucocorticoid receptor [1]) [nM] | Activity [2] [%] | Ki (Progesterone receptor) [nM] | Ki (Androgen receptor) [nM] | Activity [3] [%] | Activity [4] [%] | EC50 (Glucocorticoid receptor [5]) [nM] | EC50 (Glucocorticoid receptor [6]) [nM] | SMILES
11 | 35 | 380 | 1500 | 77 | 90 | 0.6 | 250 | Cc1c[nH]c2c(-c3c(F)cc4c(c3F)/C(=N/OC(C)C)CC(C)(C)N4)cccc12
65 | 22 | 950 | 290 | 67 | 91 | 19 | 350 | Cc1c[nH]c2c(-c3c(F)cc4c(c3F)/C(=N/OC(C)(C)CO)CC(C)(C)N4)cccc12
13 | 28 | 220 | 1000 | 73 | 91 | 5 | 70 | Cc1c[nH]c2c(-c3c(F)cc4c(c3F)/C(=N/OC(C)(C)C)CC(C)(C)N4)cccc12
